# PubChem BioAssay AID2060483 (Molecular Pharmacology Branch, DTP, NCI, 2025)
# Values joined by “and” are separate entries in the source; they are usually repeats but may differ in a detail not shown here. Equal values may be shown once.
# Test system: K24384-001-R-PDC complex spheroids, viability
# Experiment: Anticancer human tumor K24384-001-R-PDC patient-derived pancreatic adenocarcinoma cell line growth inhibition [GQUAD]
# Conditions: for viability, T/C: stronger effect = lower value
# Excerpt: DNA G-quadruplex Stabilizer Agents in Combinations in Complex Spheroids
# A high-throughput screen of multi-cell type tumor spheroids was designed to identify active combinations of DNA G-quadruplex stabilizer agents and targeted small molecules. Complex spheroids include a stromal component modeled by human endothelial cells (HUVEC) and fibroblasts modeled by human mesenchymal stem cells (MSCs). The concentration ranges selected for each drug and investigational agent were based upon clinically achievable concentrations if the clinical Cmax of the agent was known.
# Compounds. The drugs and investigational agents: pidnarulex (CX-5461; NSC782164), APTO-253 (NSC789042), BRACO-19 (NSC847499), peposertib (NSC802822), ceralasertib (NSC780249), elimusertib (NSC800525), camonsertib (NSC841442), AZD-1390 (NSC803789), olaparib (NSC753686), talazoparib (NSC767125), ART-558 (NSC835418), sotorasib (NSC818433), MRTX-1133 (NSC836407), SN-38 (NSC673596), topotecan (NSC609699), etoposide (NSC141540), doxorubicin (NSC123127), gemcitabine (NSC613327), 5-fluorouracil (NSC19893), paclitaxel (NSC125973), vemurafenib (NSC761431), panobinostat (NSC761190), R-306465 (JNJ-16241199; NSC773264), adavosertib (NSC754352), TP-3654 (NSC805149), carboplatin (NSC241240), KSQ-4279 (NSC840948), and staurosporine (NSC755774) were obtained from the National Cancer Institute (NCI) Developmental Therapeutics Program Chemical Repository (34). The FDA-approved anticancer drug set is available from the NCI Developmental Therapeutics Program. […] The stock solutions were prepared in dimethyl sulfoxide (DMSO, Sigma-Aldrich, St. Louis, MO, cat. D2650) at 800-fold the tested concentration and stored at -70 degrees C prior to their use. All drugs and investigational agents were tested over a range starting from a high concentration at or near the clinical Cmax and decreasing in half-log increments. If the clinical Cmax for an agent had not been determined, the highest concentration tested was 10 microM.
# 2.3 Cell Culture. All cells were maintained in an incubator at 37 degrees C and 5% CO2 with 95% humidity. The PDC lines were cultured according to standard operating procedures established by the NCI PDMR. All PDCs were thawed and cultured in Matrigel-coated flasks prepared with a working solution of 1X Ham's F-12 nutrient mix, without supplementation (Invitrogen, cat. 11765054), 100 U/mL penicillin-streptomycin (Invitrogen, cat. 15140122), and 2.5% Matrigel (Corning Inc., cat. 354248) for the first three passages. The 857933-349-R-J2-PDC line was cultured in 6C/Colon 1B media, which includes advanced DMEM/F-12 (Thermo Fisher Scientific, cat. 12634028), 10 mM HEPES (Thermo Fisher Scientific, cat. 15630080), 1X GlutaMAX supplement (Thermo Fisher Scientific, cat. 35050061), 0.1 mg/mL primocin (InvivoGen, cat. ant-pm-2), 10% defined fetal bovine serum, heat inactivated (HyClone Laboratories Inc., cat. SH30070.03HI), 50% L-WRN conditioned media (ATCC, cat. CRL-3276), 1.25 mM N-Acetyl-L-cysteine (Sigma-Aldrich, cat. A9165), 10 mM nicotinamide (Sigma-Aldrich, cat. N0636), 1X B-27 supplement (Thermo Fisher Scientific, cat. 17504044), 1X N-2 supplement (Thermo Fisher Scientific, cat. 17502048), 10 microM Y-27632 dihydrochloride (Tocris Bioscience, cat. 1254), and 50 ng/mL human EGF recombinant protein (Thermo Fisher Scientific, cat. PHG0311). The 485176-168-R4-J1-PDC line was cultured in Panc media, which includes all 6C/Colon 1B media components plus 100 ng/mL human FGF-10 (Thermo Fisher Scientific, cat. 100-26), 500 nM SB-431542 (Selleckchem, cat. S1067), and gastrin (Tocris, cat. 3006).
# […]
# 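Note: spheroids exposed to compounds for seven days.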
SMILES,"viability, T/C (compound 0.0316 µM)","viability, T/C (compound 0.1 µM)","viability, T/C (compound 0.316 µM)","viability, T/C (compound 1 µM)","viability, T/C (compound 3.16 µM)","viability, T/C (compound 10 µM)",IC50 (curve of compound),"viability, T/C (compound 0.000999 µM)","viability, T/C (compound 0.00316 µM)","viability, T/C (compound 0.00999 µM)","viability, T/C (compound 0.0999 µM)","IC50 (compound alone, run of 02/26/2024) [µM]"
C#Cc1c(F)ccc2cc(O)cc(-c3ncc4c(N5CC6CCC(C5)N6)nc(OCC56CCCN5CC(F)C6)nc4c3F)c12 (stereo not drawn),107% and 94.9% and 91.9%,99.2% and 99.3% and 86.2%,98.2% and 95.7% and 83.9%,74.1% and 52.7% and 53%,35.6% and 35.4% and 33.3%,19.8% and 14.8% and 18.1%,2.06 µM and 1.35 µM and 1.32 µM,,,,,
C=CC(=O)N1CCN(c2nc(=O)n(-c3c(C)ccnc3C(C)C)c3nc(-c4c(O)cccc4F)c(F)cc23)C(C)C1 (stereo not drawn),110% and 115% and 96.6%,95.3% and 80% and 113%,105% and 99.4% and 119%,91.2% and 103% and 99.1%,104% and 116% and 106%,93% and 80.7% and 94.2%,> 10 µM,,,,,
C=CCn1c(=O)c2cnc(Nc3ccc(N4CCN(C)CC4)cc3)nc2n1-c1cccc(C(C)(C)O)n1,95.1% and 91% and 82%,83.3% and 71% and 74.8%,47.9% and 50.8% and 64%,20.5% and 17.9% and 22.7%,13.4% and 12.8% and 16.7%,19.4% and 15.9% and 18.2%,0.29 µM and 0.271 µM and 0.466 µM,,,,,
CC(=O)O[C@H]1C(=O)[C@@]2(C)[C@H]([C@H](OC(=O)c3ccccc3)[C@]3(O)C[C@H](OC(=O)[C@H](O)[C@@H](NC(=O)c4ccccc4)c4ccccc4)C(C)=C1C3(C)C)[C@]1(OC(C)=O)CO[C@@H]1C[C@@H]2O,33.8% and 31.3% and 53.9%,25.3% and 22% and 20.2%,23.4% and 18.5% and 29.6%,20.5% and 21.1% and 28.1%,25.6% and 20.9% and 26.2%,28.5% and 28.9% and 37.3%,< 0.0316 µM,,,,,
CC(C)(O)C1CCC(Nc2ccc3ncc(-c4cccc(C(F)(F)F)c4)n3n2)CC1 (stereo not drawn),103% and 104% and 99%,95.2% and 105% and 94.7%,113% and 101% and 108%,61% and 80.7% and 57.2%,25% and 33.2% and 28.8%,48% and 40.7% and 36%,1.68 µM and 2.24 µM and 1.39 µM,,,,,
CC(C)n1c(=O)n(C)c2cnc3cc(F)c(-c4ccc(OCCCN5CCCCC5)nc4)cc3c21,108% and 84.2% and 93.7%,89% and 95.3% and 95.1%,116% and 97.8% and 99.7%,120% and 88% and 123%,123% and 107% and 119%,92.1% and 80.3% and 90.2%,> 10 µM,,,,,
CC1COCCN1c1cc(-c2ccnn2C)c2ccnc(-c3ccn[nH]3)c2n1 (stereo not drawn),85.2% and 75.3% and 76.9%,49.8% and 45% and 54.3%,41.3% and 28.3% and 40.7%,37.1% and 26.5% and 29.7%,38.4% and 30.4% and 33.3%,31.8% and 32.7% and 33.8%,0.109 µM and 0.0827 µM and 0.141 µM,,,,,
CC1COCCN1c1cc(C2(O)CC3CCC(C2)O3)c2cnn(-c3ccn[nH]3)c2n1 (stereo not drawn),80.5% and 78% and 64.4%,43.7% and 56.4% and 38.6%,40% and 45.8% and 33.4%,29.1% and 26.3% and 24.6%,24.8% and 25.7% and 32.5%,13.2% and 19% and 15%,0.108 µM and 0.178 µM and 0.0642 µM,,,,,
CC1COCCN1c1cc(C2(S(C)(=N)=O)CC2)nc(-c2ccnc3[nH]ccc23)n1 (stereo not drawn),92.8% and 89.6% and 108%,96% and 93.6% and 99.5%,107% and 102% and 114%,65.9% and 56.5% and 74.8%,34.9% and 32.8% and 40%,33% (2×) and 26.7%,1.77 µM and 1.32 µM and 2.11 µM,,,,,
CCCS(=O)(=O)Nc1ccc(F)c(C(=O)c2c[nH]c3ncc(-c4ccc(Cl)cc4)cc23)c1F,99.8% and 109% and 105%,107% and 112% and 96.4%,128% and 125% and 130%,119% and 110% and 116%,137% and 147% and 123%,46.2% and 54.7% and 52.6%,9.4 µM and > 10 µM,,,,,
CC[C@@]1(O)C(=O)OCc2c1cc1n(c2=O)Cc2cc3c(CN(C)C)c(O)ccc3nc2-1,82.8% and 82.3% and 80.1%,,53% and 58.5% and 51.3%,,,,> 0.316 µM,103% and 111% and 108%,83.2% and 92.2% and 77.5%,97.7% and 100% and 114%,66.6% and 50.2% and 63.6%,
CCc1c2c(nc3ccc(O)cc13)-c1cc3c(c(=O)n1C2)COC(=O)[C@]3(O)CC,43.4% and 33% and 29.1%,,24.3% (2×) and 23.9%,,,,0.0128 µM and 0.00492 µM and 0.0157 µM,99.6% and 68.6% and 79.3%,52.9% and 58% and 61.9%,65.9% and 39.2% and 63.5%,27.3% and 38% and 31.1%,
CN(C)c1ccc(Nc2c3ccc(NC(=O)CCN4CCCC4)cc3nc3cc(NC(=O)CCN4CCCC4)ccc23)cc1,101% [middle of 12 runs],100% [middle of 12 runs],101% [middle of 12 runs],,,,,,,,,> 10
